Legend:
[1] = tested on: H1975 (EGFR^L858R+T790M) cells; assay: Apoptosis by Annexin V/PI staining with flow cytometry; format: cell-based, human
Protocol: Annexin V/PI staining is used to detect early and late stages of apoptosis. According to the manufacturer's protocol (BD Pharmingen), 5×10^5 cells of the treated and control groups were harvested, washed, and double-stained with Annexin V/PI for 15 min at room temperature in dark. Then apoptotic cells were quantitatively counted by a flow cytometer (BD FACSAria III). Early stage of apoptotic cells were stained with Annexin V-positive and PI-negative, while the late stage of apoptotic cells were stained with Annexin V-positive and PI-positive.
Example 6 further studies if the sanguinarine-induced apoptosis in H1975 (EGFR^L858R+T790M) is in caspases-dependent manner H1975 cells were treated with 1.25 μM sanguinarine and 1.25 μM sanguinarine together with 50 μM pan-caspase inhibitor for 24 hrs.

[2] = tested on: EGFR; assay: Western blot analysis of the protein level of EGFR; format: cell-based, human; settings: 5 μM NAC and 1.25 μM sanguinarine
Protocol: (§1) Cells were lysed in RIPA lysis buffer with protease and phosphatase inhibitors added for total whole cell protein extraction. The concentration of the total protein extract was determined by Bio-Rad DCTM protein assay kit (Bio-Rad). Then samples were loaded and separated onto a 10% SDS-PAGE gel and then the separated proteins were transferred to a Nitrocellulose (NC) membrane. Membranes were blocked with 5% milk without fat in TBST for 1 hour at room temperature. Primary antibodies (1:1000 dilutions for Cell Signaling antibodies; 1:500 dilutions for Santa Cruz antibodies) were added and incubated overnight at 4° C. On the other day, membrane was washed by TBST for three times (5 mins/wash), while secondary fluorescent antibody (1:10000 dilutions) was added to membrane and incubated at room temperature for 1 hr. Actin was used as loading control and for normalization. The signal intensity of the membranes was detected by Odessy (LI-COR).
In Example 3, the protein level of EGFR after sanguinarine treatment with difference dosage and duration was analyzed.

[3] = tested on: JNK, p38; assay: Western blot of phosphorylation of JNK and p38; format: cell-based, human; settings: 5 μM NAC and 1.25 μM sanguinarine
Protocol: as §1
ROS intensity was increased with the increase of sanguinarine treatment time. Sanguinarine-induced apoptosis in H1975 cells, in which the cells were pre-treated with 5 μM NAC and a ROS generation inhibitor, was also studied. […] Also, P-EGFR 1045 as shown in FIG. 6 is a tyrosine(Y) phosphorylation site of EGFR at amino acid position 1045 (Y1045) and phosphorylation of this site will lead to activation of EGFR degradation after cbl docking to this site

[4] = tested on: H2228 (EML4-ALK fusion gene); settings: method not stated; cited from earlier work

CC(=O)N[C@@H](CS)C(=O)O [NAC]
apoptosis induced by sanguinarine after NAC pre-treatment ([1]; H1975, pre-treated with 5 μM NAC, sanguinarine): completely blocked
EGFR degradation induced by sanguinarine [2]: block
phosphorylation of JNK, p38 induced by sanguinarine [3]: block

COc1cc2ncnc(Nc3ccc(F)c(Cl)c3)c2cc1OCCCN1CCOCC1 [Gefitinib]
Gefitinib Sensitivity [4]: Resistant

C[n+]1cc2c3c(ccc2c2ccc4cc5c(cc4c21)OCO5)OCO3 [sanguinarine]
more cell debris than control ([1]; H1975, 1.25 μM, 24 hrs): 20%
increase in early stage of apoptosis compared with the control group ([1]; H1975, 1.25 μM, 24 hrs, early stage (Q3)): 7.2 fold

From patent US20140371254A1, “NOVEL TREATMENT OF GEFITINIB-RESISTANT NON-SMALL-CELL LUNG CANCER” (Macau University of Science and Technology, priority 2013, published 2014)
